Counter-ions that a name gives are not always drawn. Like-named read-outs stand apart in the source and are kept apart here.
Biological target: T1, m1 muscarinic receptor (Rattus norvegicus, UniProt P08482)
T1 construct: expressed in transfected cells; host or cells: A9 L cells (mouse fibroblast line)
T1 sequence (P08482 1-460): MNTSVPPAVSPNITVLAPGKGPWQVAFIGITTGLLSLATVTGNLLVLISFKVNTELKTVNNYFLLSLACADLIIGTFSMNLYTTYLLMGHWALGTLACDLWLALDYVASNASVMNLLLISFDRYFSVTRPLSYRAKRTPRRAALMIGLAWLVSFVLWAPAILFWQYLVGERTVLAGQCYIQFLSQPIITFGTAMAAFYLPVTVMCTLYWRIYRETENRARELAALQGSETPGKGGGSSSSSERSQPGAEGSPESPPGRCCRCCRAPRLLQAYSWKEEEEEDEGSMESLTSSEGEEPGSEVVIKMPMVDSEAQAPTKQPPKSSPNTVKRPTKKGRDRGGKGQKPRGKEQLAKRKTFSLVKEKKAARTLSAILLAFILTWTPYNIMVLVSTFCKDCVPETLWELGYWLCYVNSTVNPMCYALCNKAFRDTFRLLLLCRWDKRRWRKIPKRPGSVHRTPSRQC
Experiment: IP hydrolysis in A9 L cells cloned with the genetic m1 muscarinic receptor
Type: cell-based, human and rat
Conditions: for Emax: A9L-m1, 0.75 h, percentage of total [3H]IP accumulated in the presence of 100 µM carbachol stimulation, 37°C for 45 min, read-out: % PI (efficacy); for EC50: IP hydrolysis, seven point curves, three separate experiments
Method: IP hydrolysis in A9 L cells cloned with the genetic m, muscarinic receptor: A9 L cells transfected with human and rat m, muscarinic receptors (Dörje et al., 1991; Jones et al., 1988), were cultured to confluence in 75-ml flasks containing Dulbecco's modified essential media. Cells were prelabeled with 1 µCi/ml of myo(2-[^3H]inositol (Amersham Inc., 16.3 Ci/mmol) for 48 hr before assaying. On the day of assay, cells were detached using a 30-sec exposure to 0.25% trypsin in 1 mM EDTA. The cells were collected by centrifugation (300 x g for 5 min) and resuspended in oxygenated HEPES buffer containing 10 mM LiCl (NaCl 142 mM, KCl 5.6 mM, CaCl2 2.2 mM, MgCl2 1 mM, NaHCO3 3.6 mM, D-glucose 5.6 mM and Na^+ HEPES 30 mM, pH 7.4). Cells were incubated at 37°C for 45 min in the presence of varying concentrations of test compounds. Total IP hydrolysis was determined using the method of Schoepp and Johnson (1988). […] Half-maximal (EC50) values were determined from the mean (±S.D.) of seven point curves determined from three separate experiments.

Row | SMILES | Emax [%] | EC50 (read-out: EC50) [nM] | EC50 (EC50, nM) [nM]
1 | Clc1ccc(C#CCOc2nsnc2[C@H]2CN3CCC[C@H]2C3)cc1 [Compound 44, Exo (5R,6R)-6-(3-(3-(4-Chlorophenyl)-2-propyn-1-yloxy)-1,2,5-thiadiazol-4-yl)-1-azabicyclo[3.2.1]octane, (+)-tartrate] | 81 | 32 | 
2 | COc1cccc(C#CC(Oc2nsnc2[C@H]2CN3CCC[C@H]2C3)C(C)C)c1 (stereo partly drawn) [Compound 45, Exo (5R,6R)-6-(3-(1-(3-Methoxyphenyl)-4-methyl-1-pentyn-3-yloxy)-1,2,5-thiadiazol-4-yl)-1-azabicyclo[3 2.1]octane, (+)-tartrate] | 66 | 8 | 
3 | CC(C#Cc1cccs1)Oc1nsnc1[C@H]1CN2CCC[C@H]1C2 (stereo partly drawn) [Compound 47, Exo (5R,6R)-6-(3-(3-(2-Thienyl)-1-methyl-2-propyn-1-yloxy)-1,2,5-thiadiazol-4-yl)-1-azabicyclo[3.2.1]octane, (+)-tartrate] | 102 | 102 | 
4 | CC(C#Cc1ccsc1)Oc1nsnc1[C@H]1CN2CCC[C@H]1C2 (stereo partly drawn) [Compound 48, Exo (5R,6R)-6-(3-(3-(3-Thienyl)-1-methyl-2-propyn-1-yloxy)-1,2,5-thiadiazol-4-yl)-1-azabicyclo[3.2.1]octane, (+)-tartrate] | 96 | 7 | 
5 | O=C1CCCN1CC#CCN1CCCC1 [oxotremorine, reference compound] |  |  | 16300

More lines, main results first:

Row | Emax [%] | EC50 (read-out: EC50) [nM] | SMILES | EC50 (EC50, nM) [nM]
6 | 100 | 0.7 | C(#Cc1cccs1)COc1nsnc1[C@H]1CN2CCC[C@H]1C2 [Compound 49, Exo (5R,6R)-6-(3-[3-(2-Thienyl)-2-propyn-1-yloxy]-1,2,5-thiadiazol-4-yl)-1-azabicyclo[3 2 1]octane, oxalate] | 
7 | 101 | 2 | C(#Cc1ccsc1)COc1nsnc1[C@H]1CN2CCC[C@H]1C2 [Compound 50, Exo (5R,6R)-6-(3-[3-(3-Thienyl)-2-propyn-1-yloxy]-1,2,5-thiadiazol-4-yl)-1-azabicyclo[3.2.1]octane, oxalate] | 

— patent EP0977755B1, “HETEROCYCLIC COMPOUNDS AND THEIR PREPARATION AND USE” (NOVO NORDISK A/S, priority 1997, dated 1998)
